Data published in patent US6878388B1, “Vanadium compounds for treating proliferative cell disorders” (Parker Hughes Institute, priority 2000, dated 2005).

What was measured:
U87 cells = experiment: In vitro invasion assay, Matrigel-coated Boyden chambers, U87; type: cell-based, human; details: 24 h preincubation, 3 experiments, read-out: Mean IC50 inhibition of invasion through Matrigel matrix
Method: Tumor invasion of the basement membrane is a crucial step in the complex multistage process that leads to metastatic spread. Tumor cells cross the basement membrane as they initially invade the lymphatic or vascular beds during dissemination and as they penetrate their target tissues. […]
Invasion of cancer cells treated with [VO(SO4)(Me2-Phen)2] was assayed using Matrigel-coated Costar 24-well transwell cell culture chambers (“Boyden chambers”) with 8.0-μm-pore polycarbonate filter inserts as described previously (Narla et al., Clin Cancer Res, 4: 2463-2471, 1998; Ghosh et al., Anticancer Drug Des, 14: 403-410, 1999; Albini et al., J Cell Biol, 105: 1867-1872, 1987). […] The cells were trypsinized, washed twice with serum-free medium containing BSA, counted and resuspended in a serum-free medium at 1×10^5 cells/ml. […] The invasive cells that migrated to the lower side of the filter were fixed, stained with Hema-3 solution and counted under a light microscope. Five to 10 random fields per filter were counted to determine the invasive fraction. The invasive fractions of cells treated with [VO(SO4)(Me2-Phen)2] were compared to those of DMSO-treated control cells and the percent inhibition of invasiveness was determined. […]

[1] = test system: T98 human glioblastoma cells; experiment: MTT cytotoxicity assay, T98; type: cell-based; details: 48 h incubation, 3 independent experiments, read-out: IC50 (mean ± SE)
Method: Human brain tumor cells lines U87 MG (Cat.# HTB-14), U118 MG (Cat. # HTB-15), U138 (Cat # HTB-16), U373 MG (CAT. # HTB-17), and T98G (Cat. # CRL-1690) and breast cancer cell lines BT-20 (Cat # HTB-19), MDA-MB-231 (Cat # HTB-26), MDA-MB-361 (Cat # HTB-27), and MCF-7 (Cat # HTB-22) were obtained from American Type Culture Collection (ATCC, Rockville, Md.) and maintained as continuous cell lines in Dulbecco's modified Eagles's medium (U87, U118, U138, U373, T98 and BT-20) or Leibovitz's L-15 medium (MDA-MB-231 and MDA-MB-361). All media were supplemented with 10% fetal calf serum (FCS), 4 mM glutamine, 100 U/ml penicillin G and […] streptomycin sulfate. All tissue culture reagents were obtained from Life Technologies Inc. (GIBCO-BRL, Gaithersburg, Md.).
The cytotoxicity of [VO(SO4)(Me2-Phen)2] against human cancer cell lines was analyzed using the MTT (3-[4,5-dimethylthiazol-2-yl]-2,5-diphenyl tetrazolium bromide) assay (Boehringer Mannheim Corp., Indianapolis, Ind.) as described previously (Narla et al., Clin Cancer Res., 4: 1405-1414, 1998). […] The absorbance at 540 nm (a reference wavelength of 690 nm was used) of the solution in each well was measured using a microplate reader (Labsystems). The percent survival and the IC50 values were calculated using Graphpad Prism v2.0 (Graphpad Software, Inc., San Diego, Calif.) as described previously (Narla et al., Supra). […]

## Cc1ccnc2c1ccc1c(C)ccnc12.Cc1ccnc2c1ccc1c(C)ccnc12.O=S(=O)([O-])[O-].[O]=[V+2] [[VO(SO4)(Me2-Phen)2], bis(4,7-dimethyl-1,10-phenanthroline) sulfatooxovanadium (IV)]
U87 cells
  IC50: 780 ± 400 nM
[1]
  IC50: 3900 ± 500 nM
